In patent US20250387400A1, “TYK2 INHIBITORS” (BIOGEN MA INC., priority 2022, published 2025):
Where two headings read alike, the source gives them in different places.

Tests used:
Assay type in all cases: biochemical
[1] = target: T1, catalytic kinase (JH1) domain of human JAK1 (Homo sapiens, UniProt P23458); experiment: ADP-Glo kinase assay, JAK1 kinase domain
T1 construct: 4 nM of recombinant JAK1 kinase domain is used to phosphorylate
Experimental: (§1) As summarized in Table 3 below, compounds of the disclosure were assessed for their ability to inhibit TYK2, JAK1, JAK2, and JAK3 activity.
(§2) The kinase activity of recombinantly generated catalytic kinase (also known as JH1) domain of human JAK1, JAK2, JAK3 and TYK2 were evaluated in a plate-based assay using the ADP-Glo™ Kinase Assay platform. […] The reactions proceed for 100 minutes and the catalytic activity is quantified by first depleting the unused ATP, converting the hydrolyzed ADP into ATP to generate luminescence in a luciferase reaction; which is the basis of the ADP-Glo platform. Compounds are tested at either 10 μM or 1 μM top concentration, 11 points of 3-fold dilution. The data is normalized and the percent activity versus log concentration of compound is fitted with a 4-parameter logistic model to generate a curve and an IC50 value.

[2] = target: T2, catalytic kinase (JH1) domain of human TYK2 (Homo sapiens, UniProt P29597); experiment: ADP-Glo kinase assay, TYK2 kinase domain
T2 construct: recombinantly generated catalytic kinase (also known as JH1) domain of human JAK1, JAK2, JAK3 and TYK2
T2 sequence (P29597 897-1176 limits assumed): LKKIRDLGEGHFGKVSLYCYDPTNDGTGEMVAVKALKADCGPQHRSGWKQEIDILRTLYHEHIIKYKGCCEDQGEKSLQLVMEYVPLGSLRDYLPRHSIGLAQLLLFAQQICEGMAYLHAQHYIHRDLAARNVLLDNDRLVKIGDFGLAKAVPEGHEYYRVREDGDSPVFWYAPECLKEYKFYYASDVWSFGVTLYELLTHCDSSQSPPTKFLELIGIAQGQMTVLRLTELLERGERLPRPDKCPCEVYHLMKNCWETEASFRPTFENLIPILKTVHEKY
Experimental: as §1, §2

[3] = target: T3, catalytic kinase (JH1) domain of human JAK2 (Homo sapiens, UniProt O60674); experiment: ADP-Glo kinase assay, JAK2 kinase domain
T3 construct: Catalytic activities of recombinant JAK2, JAK3 and TYK2 kinase domain
Experimental: as §1, §2

[4] = target: T4, catalytic kinase (JH1) domain of human JAK3 (Homo sapiens, UniProt P52333); experiment: ADP-Glo kinase assay, JAK3 kinase domain
T4 construct: Catalytic activities of recombinant JAK2, JAK3 and TYK2 kinase domain
Experimental: as §1, §2

[5] = 4 nM recombinant JAK1 kinase domain, 50 μM JAK3-342 peptide, 35 μM ATP, 100 minutes, read-out: JAK1 biochem IC50 (nM) Mean
[6] = 2 nM recombinant TYK2 kinase domain, 50 μM JAK3-974 peptide, 10 μM ATP, 100 minutes, read-out: TYK2 biochem IC50 (nM) Mean
[7] = 0.2 nM recombinant JAK2 kinase domain, 50 μM JAK3-974 peptide, 15 μM ATP, 100 minutes, read-out: JAK2 biochem IC50 (nM) Mean
[8] = 0.3 nM recombinant JAK3 kinase domain, 50 μM JAK3-974 peptide, 4 μM ATP, 100 minutes, read-out: JAK3 biochem IC50 (nM) Mean

T1 sequence (P23458 875-1153 limits assumed): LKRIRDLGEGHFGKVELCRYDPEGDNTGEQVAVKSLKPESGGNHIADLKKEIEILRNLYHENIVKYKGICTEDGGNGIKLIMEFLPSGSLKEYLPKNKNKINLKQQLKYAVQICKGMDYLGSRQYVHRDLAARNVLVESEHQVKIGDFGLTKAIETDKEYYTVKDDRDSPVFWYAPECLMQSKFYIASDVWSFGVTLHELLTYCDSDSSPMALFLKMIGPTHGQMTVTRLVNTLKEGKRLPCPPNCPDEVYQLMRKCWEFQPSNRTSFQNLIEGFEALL
T3 sequence (O60674 849-1124 limits assumed): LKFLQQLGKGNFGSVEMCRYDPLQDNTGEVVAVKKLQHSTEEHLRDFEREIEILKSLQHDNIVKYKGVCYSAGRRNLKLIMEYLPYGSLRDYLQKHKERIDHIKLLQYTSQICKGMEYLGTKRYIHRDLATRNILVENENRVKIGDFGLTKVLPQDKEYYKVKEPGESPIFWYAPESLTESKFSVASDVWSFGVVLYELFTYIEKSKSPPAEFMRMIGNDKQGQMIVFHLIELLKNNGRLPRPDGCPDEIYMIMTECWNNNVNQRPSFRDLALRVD
T4 sequence (P52333 822-1111 limits assumed): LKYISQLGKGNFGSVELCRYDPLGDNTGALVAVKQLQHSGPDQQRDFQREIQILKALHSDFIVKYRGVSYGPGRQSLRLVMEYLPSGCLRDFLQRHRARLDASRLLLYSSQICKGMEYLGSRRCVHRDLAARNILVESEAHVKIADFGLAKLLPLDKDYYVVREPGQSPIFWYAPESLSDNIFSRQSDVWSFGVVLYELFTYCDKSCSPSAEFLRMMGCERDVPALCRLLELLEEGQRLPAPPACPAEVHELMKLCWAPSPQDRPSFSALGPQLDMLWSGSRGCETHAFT

| IC50 [1, 5] [nM] | IC50 [2, 6] [nM] | IC50 [3, 7] [nM] | IC50 [4, 8] [nM] | SMILES | IC50 [1] [nM] | IC50 [2] [nM] | IC50 [3] [nM] | IC50 [4] [nM] |
| --- | --- | --- | --- | --- | --- | --- | --- | --- |
|  |  |  |  | Cn1cc(-c2cc3c(N4CC5CCC(C4)N5[C@H]4C[C@H](C#N)C4(C)C)ccnn3c2)cn1 (single isomer, unassigned) [Example 46] | 955 | 34 | 215 | 1850 |
| > 10000 | 425 | 7700 | > 10000 | Cn1cc(-c2cc3c(N4CC5CCC(C4)N5[C@H]4CC[C@@H]4O)ccnn3c2)cn1 (racemic) [Example 49, rac-(1S,2S)-2-(3-(6-(1-methyl-1H-pyrazol-4-yl)pyrrolo[1,2-b]pyridazin-4-yl)-3,8-diazabicyclo[3.2.1]octan-8-yl)cyclobutan-1-ol] |  |  |  |  |
| 49.5 | 30.5 | 97 | > 1000 | COc1cc(-c2cc3c(N4CC5CCC(C4)N5C4COC4)ccnc3[nH]2)ccn1 [Example 18, 2-(2-methoxypyridin-4-yl)-4-(8-(oxetan-3-yl)-3,8-diazabicyclo[3.2.1]octan-3-yl)-1H-pyrrolo[2,3-b]pyridine] |  |  |  |  |
| 4250 | 260 | 1800 | 1650 | Cn1cc(-c2cc3c(N4CC5CCC(C4)N5[C@H]4C[C@H](C#N)C4)ncnc3[nH]2)cn1 [Example 63, (1R,3r)-3-(3-(6-(1-methyl-1H-pyrazol-4-yl)-7H-pyrrolo[2,3-d]pyrimidin-4-yl)-3,8-diazabicyclo[3.2.1]octan-8-yl)cyclobutane-1-carbonitrile] |  |  |  |  |
|  |  |  |  | Cn1cc(-c2cc3c(N4CC5CCC(C4)N5[C@H]4C[C@@H](C#N)C4(C)C)ccnn3c2)cn1 (single isomer, unassigned) [Example 47] | 72.3 | 2.33 | 17.3 | 130 |
|  |  |  |  | N#CC1CC(N2C3CCC2CN(c2ccnn4cc(-c5ccnnc5)cc24)C3)C1 (stereo not shown) [Example 55, 3-(3-(6-(pyridazin-4-yl)pyrrolo[1,2-b]pyridazin-4-y1)-3,8-diazabicyclo[3.2.1]octan-8-yl)cyclobutane-1-carbonitrile] | 130 | 11.5 | 80.5 | 625 |
| 134 | 13 | 108 | 690 | Cc1cc(-c2cc3c(N4CC5CCC(C4)N5C4CC(C#N)C4)ccnn3c2)cnn1 (stereo not shown) [Example 57, 3-(3-(6-(6-methylpyridazin-4-yl)pyrrolo[1,2-b]pyridazin-4-yl)-3,8-diazabicyclo[3.2.1]octan-8-yl)cyclobutane-1-carbonitrile] |  |  |  |  |
|  |  |  |  | Cn1cc(-c2cn3nccc(N4CC5CCC(C4)N5[C@H]4C[C@@H](C#N)C4)c3n2)cn1 [Example 65, (1S,3s)-3-(3-(2-(1-methyl-1H-pyrazol-4-yl)imidazo[1,2-b]pyridazin-8-yl)-3,8-diazabicyclo[3.2.1]octan-8-yl)cyclobutane-1-carbonitrile] | 227 | 70.7 | 293 | 1650 |
| 18.7 | 2.47 | 9.93 | 65.3 | Cn1cc(-c2nc3c(N4CC5CCC(C4)N5[C@H]4C[C@@H](C#N)C4)ccnc3[nH]2)cn1 [Example 4, (1S,3s)-3-(3-(2-(1-methyl-1H-pyrazol-4-yl)-3H-imidazo[4,5-b]pyridin-7-yl)-3,8-diazabicyclo[3.2.1]octan-8-yl)cyclobutane-1-carbonitrile] |  |  |  |  |
|  |  |  |  | Cn1cc(-c2cn3nccc(N4CC5CCC(C4)N5[C@H]4C[C@H](C#N)C4)c3n2)cn1 [Example 66, (1R,3r)-3-(3-(2-(1-methyl-1H-pyrazol-4-yl)imidazo[1,2-b]pyridazin-8-yl)-3,8-diazabicyclo[3.2.1]octan-8-yl)cyclobutane-1-carbonitrile] | 15.1 | 3.83 | 21.3 | 102 |
|  |  |  |  | Cn1cc(-c2cc3c(N4CC5CCC(C4)N5[C@@H]4CCC45COC5)ccnn3c2)cn1 (single isomer, unassigned) [Example 41] | 2200 | 71 | 420 | 8450 |
| 820 | 90 | 950 | > 10000 | c1cc(-c2cc3c(N4CC5CCC(C4)N5C4COC4)ccnn3c2)cnn1 [Example 56, 4-(8-(oxetan-3-yl)-3,8-diazabicyclo[3.2.1]octan-3-yl)-6-(pyridazin-4-yl)pyrrolo[1,2-b]pyridazine] |  |  |  |  |
| 9200 | 205 | 4000 | > 10000 | Cn1cc(-c2cc3c(N4CC5CCC(C4)N5[C@H]4C[C@H](O)C4)ccnn3c2)cn1 [Example 31, (1R,3r)-3-(3-(6-(1-methyl-1H-pyrazol-4-yl)pyrrolo[1,2-b]pyridazin-4-yl)-3,8-diazabicyclo[3.2.1]octan-8-yl)cyclobutan-1-ol] |  |  |  |  |
| 5200 | 305 | 1200 | > 10000 | Cn1cc(-c2cc3c(N4CC5CCC(C4)N5C4CC(O)(C(F)(F)F)C4)ccnn3c2)cn1 (stereo not shown) [Example 22, 3-(3-(6-(1-methyl-1H-pyrazol-4-yl)pyrrolo[1,2-b]pyridazin-4-yl)-3,8-diazabicyclo[3.2.1]octan-8-yl)-1-(trifluoromethyl)cyclobutan-1-ol] |  |  |  |  |
| 1800 | 305 | 1150 | > 10000 | CO[C@H]1C[C@@H](N2C3CCC2CN(c2ccnc4[nH]c(-c5cnn(C)c5)nc24)C3)C1 [Example 6, 7-(8-((1s,3S)-3-methoxycyclobutyl)-3,8-diazabicyclo[3.2.1]octan-3-yl)-2-(1-methyl-1H-pyrazol-4-yl)-3H-imidazo[4,5-b]pyridine] |  |  |  |  |
| 420 | 72 | 305 | 1600 | COc1cc(-c2cc3c(N4CC5CCC(C4)N5C4CC(C#N)C4)ccnn3c2)cnn1 (stereo not shown) [Example 54, 3-(3-(6-(6-methoxypyridazin-4-yl)pyrrolo[1,2-b]pyridazin-4-y1)-3,8-diazabicyclo[3.2.1]octan-8-yl)cyclobutane-1-carbonitrile] |  |  |  |  |
| 900 | 145 | 870 | 9700 | CO[C@H]1C[C@H](N2C3CCC2CN(c2ccnc4[nH]c(-c5cnn(C)c5)nc24)C3)C1 [Example 5, 7-(8-((1r,3R)-3-methoxycyclobutyl)-3,8-diazabicyclo[3.2.1]octan-3-yl)-2-(1-methyl-1H-pyrazol-4-yl)-3H-imidazo[4,5-b]pyridine] |  |  |  |  |
| 88 | 6.95 | 54 | 460 | COCC[C@]1(C#N)C[C@@H](N2C3CCC2CN(c2ccnn4cc(-c5cnn(C)c5)cc24)C3)C1 [Example 39, (1s,3s)-1-(2-methoxyethyl)-3-(3-(6-(1-methyl-1H-pyrazol-4-yl)pyrrolo[1,2-b]pyridazin-4-yl)-3,8-diazabicyclo[3.2.1]octan-8-yl)cyclobutane-1-carbonitrile] |  |  |  |  |
| 68 | 40.5 | 115 | 785 | COc1cc(-c2cc3c(N4CC5CCC(C4)N5C4CC(C(F)F)C4)ccnc3[nH]2)ccn1 (stereo not shown) [Example 19, 4-(8-(3-(difluoromethyl)cyclobutyl)-3,8-diazabicyclo[3.2.1]octan-3-yl)-2-(2-methoxypyridin-4-yl)-1H-pyrrolo[2,3-b]pyridine] |  |  |  |  |
|  |  |  |  | COc1cc(-c2cc3c(N4CC5CCC(C4)N5[C@H]4C[C@@H](C#N)C4)ccnc3[nH]2)ccn1 [Example 14, (1S,3s)-3-(3-(2-(2-methoxypyridin-4-yl)-1H-pyrrolo[2,3-b]pyridin-4-yl)-3,8-diazabicyclo[3.2.1]octan-8-yl)cyclobutane-1-carbonitrile] | 205 | 21.5 | 170 | 1800 |

| SMILES | IC50 [1, 5] [nM] | IC50 [2, 6] [nM] | IC50 [3, 7] [nM] | IC50 [4, 8] [nM] | IC50 [1] [nM] | IC50 [2] [nM] | IC50 [3] [nM] | IC50 [4] [nM] |
| --- | --- | --- | --- | --- | --- | --- | --- | --- |
| Cn1cc(-c2cc3c(N4CC5CCC(C4)N5C4CC(F)(F)C4)ccnn3c2)cn1 [Example 52, 4-(8-(3,3-difluorocyclobutyl)-3,8-diazabicyclo[3.2.1]octan-3-yl)-6-(1-methyl-1H-pyrazol-4-yl)pyrrolo[1,2-b]pyridazine] | 57.2 | 1.9 | 35 | 574 |  |  |  |  |
| N#C[C@H]1C[C@@H](N2C3CCC2CN(c2ccnn4cc(-c5cnn(C(F)F)c5)cc24)C3)C1 [Example 60, (1S,3s)-3-(3-(6-(1-(difluoromethyl)-1H-pyrazol-4-yl)pyrrolo[1,2-b]pyridazin-4-yl)-3,8-diazabicyclo[3.2.1]octan-8-yl)cyclobutane-1-carbonitrile] | 25.5 | 2.38 | 17.5 | 132 |  |  |  |  |
